{"source": "paper PMC7355430", "about": "“Imunofan—RDKVYR Peptide—Stimulates Skin Cell Proliferation and Promotes Tissue Repair” (Molecules, 2020)", "key": {"dendritic cells (DC)": {"tested_on": "dendritic cells (DC)", "experiment": "Dendritic cell activation in PBMCs, flow cytometry", "type": "cell-based, human", "details": "0.1 and 1.0 µg/mL, 48 h, active phenotype CD11+, CD80+, CD83+", "method": "Immunological tests were conducted on human peripheral blood mononuclear cells, isolated from “buffy coats” using a ficoll density gradient (Histopaque, Sigma-Aldrich, St. Louis, MO, USA). Buffy coats for were obtained from blood of healthy anonymous donors of the Regional Center of Blood Donation and Blood Therapy in Gdansk, Poland. After washing in PBS, erythrocyte lysis, and cell counting (cell counter, Bio-Rad), the PBMCs were seeded onto a 24-well culture plate at a density of 10^6 cells/1 mL of RPMI 1640 (Penicillin/Streptomycin, 10% FBS) per well. After cell resting for 24 h, cells were stimulated with IM peptide (0.1 µg/mL and 1.0 µg/mL) for the next 48 h under appropriate conditions (37 °C, 5% CO2). The untreated cells were used as a negative control, whereas cells stimulated with LPS (1 µg/mL) and PHA (2.5 µg/mL) were a positive control. After incubation, the PBMCs were collected, washed with PBS, counted and prepared for flow cytometry analysis. 10^4 cells/100 µl were stained with monoclonal, fluorochrome-conjugated antibodies (anti-CD3, -CD4, -CD8, -CD16, -CD56, -CD25, -CD69, -CD71, -HLA-DR, -CD11c, -CD80, and -CD83) and incubated for 30 min in RT in the dark. Stained cells were analyzed using a flow cytometer (LSRFortessa, BD, USA). All data are presented as percentages due to the application of hospital diagnostic laboratory standards for immune cells analyses."}, "Stability in water": {"experiment": "Stability in water", "type": "physicochemical", "details": "1 mg/mL in sterile water, 37 °C, 24 h; HPLC Luna C18(2), PDA; 3 independent experiments, n=3 (Figure S1)", "method": "A stock of IM peptide in sterile water (1 mg/mL) was prepared and divided into 200 µL portions. The sample tubes were stored in an incubator at 37 °C and analysis was performed at various time points (0, 1, 2, 3, 6, and 24 h). The analyses were performed by HPLC using a Luna C18(2) (5 µm, 100 Å 4.6 by 250 mm) column (Phenomenex, Torrance, CA, USA) and monitored by a PDA detector. Then, 0.01% TFA in H2O (A) and 0.01% TFA in 80% ACN in water (B) were used as solvents. A linear gradient of 5–100% B over 60 min and a flow rate of 1 mL/min was applied.\nFor calculations, peak areas were compared to a calibration curve calculated by LC solution Software (Shimadzu, Kyoto, Japan)."}}, "note": "Peptide text beside a SMILES is read from it.", "data": [{"smiles": "CC(C)[C@H](NC(=O)[C@H](CCCCN)NC(=O)[C@H](CC(=O)O)NC(=O)[C@@H](N)CCCNC(=N)N)C(=O)N[C@@H](Cc1ccc(O)cc1)C(=O)N[C@@H](CCCNC(=N)N)C(=O)O", "note": "[IM, H-Arg-Asp-Lys-Val-Tyr-Arg-OH] (H-RDKVYR-OH)", "values": [{"measurement": "activation of dendritic cells", "setting": "dendritic cells (DC)", "result": "not activated"}, {"measurement": "signal from the IM peptide after incubation in water", "setting": "Stability in water", "result": "no reduction of the signal"}]}]}
